Target: ER (Homo sapiens (Human), UniProt P03372)
Assay: Western blot analysis (Compounds B1-B278)
Type: cell-based
Conditions: ER degradation by traditional Western blot; DC50 classes
How it was run: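 Compound-treated cells were lysed in RIPA buffer (Tris.HCl pH 7.6, 1% NP-40, deoxycholate, 0.1% SDS) with protease inhibitors; equal protein was resolved on 10% SDS-PAGE, transferred to PVDF and immunoblotted. Band intensities were quantified and normalized to GAPDH.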

Sequence of ER (P03372 whole entry): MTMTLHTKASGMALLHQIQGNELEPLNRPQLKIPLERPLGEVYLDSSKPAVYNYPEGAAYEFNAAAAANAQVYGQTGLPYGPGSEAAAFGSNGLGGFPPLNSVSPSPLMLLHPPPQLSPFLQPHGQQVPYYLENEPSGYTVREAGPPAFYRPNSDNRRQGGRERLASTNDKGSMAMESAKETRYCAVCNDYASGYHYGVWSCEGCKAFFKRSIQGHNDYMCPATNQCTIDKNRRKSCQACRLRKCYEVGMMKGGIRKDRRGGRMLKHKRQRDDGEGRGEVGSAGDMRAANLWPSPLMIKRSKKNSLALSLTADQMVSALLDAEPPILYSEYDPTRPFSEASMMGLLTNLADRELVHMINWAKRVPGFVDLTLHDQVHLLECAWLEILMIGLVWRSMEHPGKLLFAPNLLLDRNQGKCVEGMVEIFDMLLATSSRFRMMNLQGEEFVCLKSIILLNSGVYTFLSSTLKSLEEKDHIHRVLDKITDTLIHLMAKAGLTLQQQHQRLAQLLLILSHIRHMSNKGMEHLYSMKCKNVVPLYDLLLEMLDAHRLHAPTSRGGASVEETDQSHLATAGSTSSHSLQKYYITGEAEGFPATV

| SMILES | Traditional Western Degradation Potency |
| --- | --- |
| C[C@@H]1Cc2c([nH]c3ccccc23)[C@@H](c2c(F)cc(N3CCC(N4CCC(CN5Cc6cc7c(cc6C5)C(=O)N(C5CCC(=O)NC5=O)C7=O)CC4)CC3)cc2F)N1CC(F)F (stereo partly drawn) [Compound B58, 6-((1′-(4-((1R,3R)-2-(2,2-difluoroethyl)-3-methyl-2,3,4,9-tetrahydro-1H-pyrido[3,4-b]indol-1-yl)-3,5-difluorophenyl)-[1,4′-bipiperidin]-4-yl)methyl)-2-(2,6-dioxopiperidin-3-yl)-6,7-dihydropyrrolo[3,4-f]isoindole-1,3(2H,5H)-dione] | C (“C”: >100 nM) |
| C[C@@H]1Cc2c([nH]c3ccccc23)[C@@H](c2c(F)cc(N3CCC(N4CC(C(=O)N5Cc6cc7c(cc6C5)C(=O)N(C5CCC(=O)NC5=O)C7=O)C4)CC3)cc2F)N1CC(F)F (stereo partly drawn) [Compound B59, 6-(1-(1-(4-((1R,3R)-2-(2,2-difluoroethyl)-3-methyl-2,3,4,9-tetrahydro-1H-pyrido[3,4-b]indol-1-yl)-3,5-difluorophenyl)piperidin-4-yl)azetidine-3-carbonyl)-2-(2,6-dioxopiperidin-3-yl)-6,7-dihydropyrrolo[3,4-f]isoindole-1,3(2H,5H)-dione] | C (“C”: >100 nM) |
| C[C@@H]1Cc2c([nH]c3ccccc23)[C@@H](c2c(F)cc(N3CCC(CN4CC(N5Cc6cc7c(cc6C5)C(=O)N(C5CCC(=O)NC5=O)C7=O)C4)CC3)cc2F)N1CC(F)F (stereo partly drawn) [Compound B63, 6-(1-((1-(4-((1R,3R)-2-(2,2-difluoroethyl)-3-methyl-2,3,4,9-tetrahydro-1H-pyrido[3,4-b]indol-1-yl)-3,5-difluorophenyl)piperidin-4-yl)methyl)azetidin-3-yl)-2-(2,6-dioxopiperidin-3-yl)-6,7-dihydropyrrolo[3,4-f]isoindole-1,3(2H,5H)-dione] | B (“B”: 10-100 nM) |
| C[C@@H]1Cc2c([nH]c3ccccc23)[C@@H](c2c(F)cc(N3CCC(CN4CCC(CN5Cc6cc7c(cc6C5)C(=O)N(C5CCC(=O)NC5=O)C7=O)CC4)CC3)cc2F)N1CC(F)F (stereo partly drawn) [Compound B65, 6-((1-((1-(4-((1R,3R)-2-(2,2-difluoroethyl)-3-methyl-2,3,4,9-tetrahydro-1H-pyrido[3,4-b]indol-1-yl)-3,5-difluorophenyl)piperidin-4-yl)methyl)piperidin-4-yl)methyl)-2-(2,6-dioxopiperidin-3-yl)-6,7-dihydropyrrolo[3,4-f]isoindole-1,3(2H,5H)-dione] | A (“A”: <10 nM) |
| C[C@@H]1Cc2c([nH]c3ccccc23)[C@@H](c2c(F)cc(N3CCC(CN4CCC5(CCC(N6Cc7cc8c(cc7C6)C(=O)N(C6CCC(=O)NC6=O)C8=O)C5)CC4)CC3)cc2F)N1CC(F)F (stereo partly drawn) [Compound B70, 6-(8-((1-(4-((1R,3R)-2-(2,2-difluoroethyl)-3-methyl-2,3,4,9-tetrahydro-1H-pyrido[3,4-b]indol-1-yl)-3,5-difluorophenyl)piperidin-4-yl)methyl)-8-azaspiro[4.5]decan-2-yl)-2-(2,6-dioxopiperidin-3-yl)-6,7-dihydropyrrolo[3,4-f]isoindole-1,3(2H,5H)-dione] | B (“B”: 10-100 nM) |
| C[C@@H]1Cc2c([nH]c3ccccc23)[C@@H](c2c(F)cc(N3CC(CC(=O)N4CC(N5Cc6cc7c(cc6C5)C(=O)N(C5CCC(=O)NC5=O)C7)C4)C3)cc2F)N1CC(F)F (stereo partly drawn) [Compound B71, 3-(6-(1-(2-(1-(4-((1R,3R)-2-(2,2-difluoroethyl)-3-methyl-2,3,4,9-tetrahydro-1H-pyrido[3,4-b]indol-1-yl)-3,5-difluorophenyl)azetidin-3-yl)acetyl)azetidin-3-yl)-1-oxo-3,5,6,7-tetrahydropyrrolo[3,4-f]isoindol-2(1H)-yl)piperidine-2,6-dione] | B (“B”: 10-100 nM) |
| C[C@@H]1Cc2c([nH]c3ccccc23)[C@@H](c2c(F)cc(N3CCC4(CCN(C(=O)CN5Cc6cc7c(cc6C5)C(=O)N(C5CCC(=O)NC5=O)C7=O)CC4)C3)cc2F)N1CC(F)F (stereo partly drawn) [Compound B72, 6-(2-(2-(4-((1R,3R)-2-(2,2-difluoroethyl)-3-methyl-2,3,4,9-tetrahydro-1H-pyrido[3,4-b]indol-1-yl)-3,5-difluorophenyl)-2,8-diazaspiro[4.5]decan-8-yl)-2-oxoethyl)-2-(2,6-dioxopiperidin-3-yl)-6,7-dihydropyrrolo[3,4-f]isoindole-1,3(2H,5H)-dione] | A (“A”: <10 nM) |

Other lines, results leading:

| Traditional Western Degradation Potency | SMILES |
| --- | --- |
| B (“B”: 10-100 nM) | C[C@@H]1Cc2c([nH]c3ccccc23)[C@@H](c2c(F)cc(N3CCC(N4CC(CN5Cc6cc7c(cc6C5)C(=O)N(C5CCC(=O)NC5=O)C7=O)C4)CC3)cc2F)N1CC(F)F (stereo partly drawn) [Compound B57, 6-((1-(1-(4-((1R,3R)-2-(2,2-difluoroethyl)-3-methyl-2,3,4,9-tetrahydro-1H-pyrido[3,4-b]indol-1-yl)-3,5-difluorophenyl)piperidin-4-yl)azetidin-3-yl)methyl)-2-(2,6-dioxopiperidin-3-yl)-6,7-dihydropyrrolo[3,4-f]isoindole-1,3(2H,5H)-dione] |
| B (“B”: 10-100 nM) | C[C@@H]1Cc2c([nH]c3ccccc23)[C@@H](c2c(F)cc(N3CCC(N4CC(C(=O)N5Cc6cc7c(cc6C5)C(=O)N(C5CCC(=O)NC5=O)C7)C4)CC3)cc2F)N1CC(F)F (stereo partly drawn) [Compound B60, 3-(6-(1-(1-(4-((1R,3R)-2-(2,2-difluoroethyl)-3-methyl-2,3,4,9-tetrahydro-1H-pyrido[3,4-b]indol-1-yl)-3,5-difluorophenyl)piperidin-4-yl)azetidine-3-carbonyl)-1-oxo-3,5,6,7-tetrahydropyrrolo[3,4-f]isoindol-2(1H)-yl)piperidine-2,6-dione] |
| A (“A”: <10 nM) | C[C@@H]1Cc2c([nH]c3ccccc23)[C@@H](c2c(F)cc(N3CC(C(=O)N4CCC(CN5Cc6cc7c(cc6C5)C(=O)N(C5CCC(=O)NC5=O)C7=O)CC4)C3)cc2F)N1CC(F)F (stereo partly drawn) [Compound B61, 6-((1-(1-(4-((1R,3R)-2-(2,2-difluoroethyl)-3-methyl-2,3,4,9-tetrahydro-1H-pyrido[3,4-b]indol-1-yl)-3,5-difluorophenyl)azetidine-3-carbonyl)piperidin-4-yl)methyl)-2-(2,6-dioxopiperidin-3-yl)-6,7-dihydropyrrolo[3,4-f]isoindole-1,3(2H,5H)-dione] |
| A (“A”: <10 nM) | C[C@@H]1Cc2c([nH]c3ccccc23)[C@@H](c2c(F)cc(N3CC(C(=O)N4CCC(N5Cc6cc7c(cc6C5)C(=O)N(C5CCC(=O)NC5=O)C7=O)CC4)C3)cc2F)N1CC(F)F (stereo partly drawn) [Compound B62, 6-(1-(1-(4-((1R,3R)-2-(2,2-difluoroethyl)-3-methyl-2,3,4,9-tetrahydro-1H-pyrido[3,4-b]indol-1-yl)-3,5-difluorophenyl)azetidine-3-carbonyl)piperidin-4-yl)-2-(2,6-dioxopiperidin-3-yl)-6,7-dihydropyrrolo[3,4-f]isoindole-1,3(2H,5H)-dione] |
| C (“C”: >100 nM) | C[C@@H]1Cc2c([nH]c3ccccc23)[C@@H](c2c(F)cc(N3CCC(N4CCC(CN5Cc6cc7c(cc6C5)C(=O)N(C5CCC(=O)NC5=O)C7=O)CC4)C3)cc2F)N1CC(F)F (stereo partly drawn) [Compound B64, 6-((1-(1-(4-((1R,3R)-2-(2,2-difluoroethyl)-3-methyl-2,3,4,9-tetrahydro-1H-pyrido[3,4-b]indol-1-yl)-3,5-difluorophenyl)pyrrolidin-3-yl)piperidin-4-yl)methyl)-2-(2,6-dioxopiperidin-3-yl)-6,7-dihydropyrrolo[3,4-f]isoindole-1,3(2H,5H)-dione] |
| A (“A”: <10 nM) | C[C@@H]1Cc2c([nH]c3ccccc23)[C@@H](c2c(F)cc(N3CCC(CN4CCC(N5Cc6cc7c(cc6C5)C(=O)N(C5CCC(=O)NC5=O)C7=O)C4)CC3)cc2F)N1CC(F)F (stereo partly drawn) [Compound B66, 6-(1-((1-(4-((1R,3R)-2-(2,2-difluoroethyl)-3-methyl-2,3,4,9-tetrahydro-1H-pyrido[3,4-b]indol-1-yl)-3,5-difluorophenyl)piperidin-4-yl)methyl)pyrrolidin-3-yl)-2-(2,6-dioxopiperidin-3-yl)-6,7-dihydropyrrolo[3,4-f]isoindole-1,3(2H,5H)-dione] |
| A (“A”: <10 nM) | C[C@@H]1Cc2c([nH]c3ccccc23)[C@@H](c2c(F)cc(N3CCC(CN4CCCC(N5Cc6cc7c(cc6C5)C(=O)N(C5CCC(=O)NC5=O)C7=O)CC4)CC3)cc2F)N1CC(F)F (stereo partly drawn) [Compound B67, 6-(1-((1-(4-((1R,3R)-2-(2,2-difluoroethyl)-3-methyl-2,3,4,9-tetrahydro-1H-pyrido[3,4-b]indol-1-yl)-3,5-difluorophenyl)piperidin-4-yl)methyl)azepan-4-yl)-2-(2,6-dioxopiperidin-3-yl)-6,7-dihydropyrrolo[3,4-f]isoindole-1,3(2H,5H)-dione] |
| A (“A”: <10 nM) | C[C@@H]1Cc2c([nH]c3ccccc23)[C@@H](c2c(F)cc(N3CCC(CN4CC5(CC(N6Cc7cc8c(cc7C6)C(=O)N(C6CCC(=O)NC6=O)C8=O)C5)C4)CC3)cc2F)N1CC(F)F (stereo partly drawn) [Compound B68, 6-(2-((1-(4-((1R,3R)-2-(2,2-difluoroethyl)-3-methyl-2,3,4,9-tetrahydro-1H-pyrido[3,4-b]indol-1-yl)-3,5-difluorophenyl)piperidin-4-yl)methyl)-2-azaspiro[3.3]heptan-6-yl)-2-(2,6-dioxopiperidin-3-yl)-6,7-dihydropyrrolo[3,4-f]isoindole-1,3(2H,5H)-dione] |
| B (“B”: 10-100 nM) | C[C@@H]1Cc2c([nH]c3ccccc23)[C@@H](c2c(F)cc(N3CCC(CN4CCC5(CC4)CC(N4Cc6cc7c(cc6C4)C(=O)N(C4CCC(=O)NC4=O)C7=O)C5)CC3)cc2F)N1CC(F)F (stereo partly drawn) [Compound B69, 6-(7-((1-(4-((1R,3R)-2-(2,2-difluoroethyl)-3-methyl-2,3,4,9-tetrahydro-1H-pyrido[3,4-b]indol-1-yl)-3,5-difluorophenyl)piperidin-4-yl)methyl)-7-azaspiro[3.5]nonan-2-yl)-2-(2,6-dioxopiperidin-3-yl)-6,7-dihydropyrrolo[3,4-f]isoindole-1,3(2H,5H)-dione] |
